By CC50 is commonly meant the concentration giving 50% cytotoxicity. The term IC50 denotes the concentration needed to halve the response being measured. The EC50 is the concentration giving half of the maximal effect. One may read the AC50 as the concentration at which the activity in the assay is half-maximal.

Activity calls are given as the source filed them.

A short description of assay [1]: Vero cell cytotoxicity, dose response, cytotoxicity control for M. tuberculosis growth inhibitor project, Vero cells, purified and synthesized compounds, set 5 (AID 504909). Type of assay: functional. The note with it: Mycobacterium tuberculosis.
The nature of assay [2]: THP-1 cell cytotoxicity, cytotoxicity control, set 4 (AID 504911). Type of assay: functional. The settings on record: Mycobacterium tuberculosis.
Assay [3] in a line: THP-1 cell cytotoxicity, dose response, cytotoxicity control, set 3 (AID 504852). Type of assay: functional. The settings on record: Mycobacterium tuberculosis.
Assay [4] is described as follows: Vero cell cytotoxicity, cytotoxicity control for M. tuberculosis inhibitor project, purified and synthesized samples, set 3 (AID 504684). Type of assay: functional. The note with it: […].
Assay [5] is described as follows: Vero cell cytotoxicity, dose response, cytotoxicity control for M. tuberculosis growth inhibitor project, Vero cells, purified and synthesized compounds, set 4 (AID 504854). Type of assay: functional. The note with it: Mycobacterium tuberculosis.
Another assay can be described thus: cells. Type of assay: functional.
Another assay has as its target Melanocortin receptor 4 (Homo sapiens, UniProt P32245). The experiment in a line: inhibitors of MC4R cAMP signaling – cell-based, TR-FRET, biased antagonists, dose response (AID 602298).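 Note: antagonist potency against agonist-stimulated cAMP production.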 Type of assay: functional. Background: In TR-FRET formats the signal depends on donor and acceptor labels being close together.
Assay [6] in a line: cAMP pathway inhibition in counterscreen cell line – TR-FRET cAMP detection, counter-screen for MC4R biased antagonist project, dose response (AID 602305).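 Note: U2OS cells stimulated with forskolin near its EC80 as the cAMP inducer; potency is for inhibition of forskolin-stimulated cAMP signaling.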 Type of assay: functional, cell-based.
In assay [7] the target is T1, Heat shock factor protein 1 (Mus musculus, UniProt P38532).
T1 sequence (P38532 whole entry): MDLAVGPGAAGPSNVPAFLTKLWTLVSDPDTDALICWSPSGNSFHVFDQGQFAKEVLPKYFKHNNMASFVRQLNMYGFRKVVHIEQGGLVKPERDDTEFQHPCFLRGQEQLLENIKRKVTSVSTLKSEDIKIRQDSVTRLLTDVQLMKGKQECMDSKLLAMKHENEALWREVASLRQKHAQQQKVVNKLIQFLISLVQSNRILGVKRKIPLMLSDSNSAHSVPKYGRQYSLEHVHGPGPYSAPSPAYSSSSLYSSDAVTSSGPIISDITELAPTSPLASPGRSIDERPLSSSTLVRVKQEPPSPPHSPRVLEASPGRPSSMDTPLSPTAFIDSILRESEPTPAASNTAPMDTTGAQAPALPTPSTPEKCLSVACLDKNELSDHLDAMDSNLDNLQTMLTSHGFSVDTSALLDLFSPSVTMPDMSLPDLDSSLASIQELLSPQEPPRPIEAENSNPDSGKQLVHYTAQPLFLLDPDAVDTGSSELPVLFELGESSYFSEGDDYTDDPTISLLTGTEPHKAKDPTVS
Nature of the assay: enhancement of HSF1-driven luciferase signal – cell-based, NIH3T3, luminescence, dose retest, confirmation (AID 435004).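 Note: stress induced by proteasome inhibitor MG132 added 30 min after compound; luciferase reporter driven by HSF1 response element in NIH3T3 cells; actives raise luminescence as potentiators of the MG132 stress response.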 Type of assay: functional.

The target of assay [8] is T2, Histone-lysine N-methyltransferase NSD2 (Homo sapiens, UniProt O96028).
T2 sequence (O96028 whole entry): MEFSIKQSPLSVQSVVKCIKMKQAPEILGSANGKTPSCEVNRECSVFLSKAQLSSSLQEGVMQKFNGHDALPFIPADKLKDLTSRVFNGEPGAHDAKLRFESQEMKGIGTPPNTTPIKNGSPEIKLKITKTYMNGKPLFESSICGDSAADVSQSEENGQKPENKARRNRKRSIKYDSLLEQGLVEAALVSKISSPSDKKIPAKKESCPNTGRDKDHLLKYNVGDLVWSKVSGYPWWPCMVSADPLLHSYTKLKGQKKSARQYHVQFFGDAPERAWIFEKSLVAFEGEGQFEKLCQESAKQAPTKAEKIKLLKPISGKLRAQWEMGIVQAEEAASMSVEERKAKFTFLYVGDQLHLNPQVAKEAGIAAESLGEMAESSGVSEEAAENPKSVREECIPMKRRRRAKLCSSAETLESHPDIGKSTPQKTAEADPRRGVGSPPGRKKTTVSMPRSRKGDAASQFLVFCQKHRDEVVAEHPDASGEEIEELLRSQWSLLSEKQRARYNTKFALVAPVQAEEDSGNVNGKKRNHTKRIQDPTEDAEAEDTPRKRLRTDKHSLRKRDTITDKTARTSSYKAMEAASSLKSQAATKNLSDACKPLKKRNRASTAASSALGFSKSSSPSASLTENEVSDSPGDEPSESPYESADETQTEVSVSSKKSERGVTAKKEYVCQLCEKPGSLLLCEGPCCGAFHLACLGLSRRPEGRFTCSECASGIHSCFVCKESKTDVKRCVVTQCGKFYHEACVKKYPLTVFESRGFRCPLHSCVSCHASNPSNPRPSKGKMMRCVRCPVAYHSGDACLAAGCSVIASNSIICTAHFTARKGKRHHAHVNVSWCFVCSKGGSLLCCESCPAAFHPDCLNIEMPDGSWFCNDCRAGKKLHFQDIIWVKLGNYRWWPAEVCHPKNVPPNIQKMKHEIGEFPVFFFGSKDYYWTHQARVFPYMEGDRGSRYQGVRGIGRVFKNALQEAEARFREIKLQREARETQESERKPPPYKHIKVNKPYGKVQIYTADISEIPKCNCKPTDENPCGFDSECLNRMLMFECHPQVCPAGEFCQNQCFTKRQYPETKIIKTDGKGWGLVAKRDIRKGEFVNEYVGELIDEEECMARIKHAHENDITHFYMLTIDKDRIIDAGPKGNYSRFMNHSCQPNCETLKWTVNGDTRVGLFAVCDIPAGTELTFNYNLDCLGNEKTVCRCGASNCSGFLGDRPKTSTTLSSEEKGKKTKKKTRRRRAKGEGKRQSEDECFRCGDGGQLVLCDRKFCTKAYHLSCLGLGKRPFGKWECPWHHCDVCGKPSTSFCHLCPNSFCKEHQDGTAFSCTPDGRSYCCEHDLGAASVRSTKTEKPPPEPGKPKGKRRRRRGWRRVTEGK
Type of assay: biochemical.

Sequence of Melanocortin receptor 4 (P32245 whole entry): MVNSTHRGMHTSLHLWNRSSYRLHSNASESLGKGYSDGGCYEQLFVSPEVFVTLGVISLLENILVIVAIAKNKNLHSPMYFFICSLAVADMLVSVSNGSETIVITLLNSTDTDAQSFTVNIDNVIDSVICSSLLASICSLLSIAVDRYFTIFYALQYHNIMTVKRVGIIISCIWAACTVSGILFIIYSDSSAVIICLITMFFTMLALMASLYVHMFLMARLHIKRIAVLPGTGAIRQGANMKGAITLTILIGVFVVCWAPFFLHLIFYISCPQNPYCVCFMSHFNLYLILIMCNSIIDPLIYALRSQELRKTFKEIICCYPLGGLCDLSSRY

As to `CCSc1nc(=O)c2ccccc2[nH]1`, the cytotoxic concentration (CC50) in [1], in [2], in [3], in assay [4] and in assay [5] was > 100 µM (active) throughout.
As to `CC(C)Cn1c(N)c(C(=O)COC(=O)c2ccc([N+](=O)[O-])o2)c(=O)n(C)c1=O`, the IC50 in “cells” is 1.57 µM (active); on Melanocortin receptor 4, > 64.6 µM (inactive); in [6] it was > 64.6 µM (inactive). Further, the EC50 in assay [7] is 18.5 µM (active). The AC50 in assay [8] is > 20 µM (inactive).

For the origin of these results see ChEMBL document CHEMBL1201862, “PubChem BioAssay data set” (2004).
